One block for each compound: values may come before it.
What was measured:
slender amaranth (Am) = experiment: Test Example 8: crop plant selectivity by upland field foliage treatment (cotton), herbicidal effects; type: in vivo; conditions: dose 1.6 g ai/10a, 14th day after treatment
Procedure: (§1) (Test on Crop Plant Selectivity by Upland Field Foliage Treatment)
(§2) In a plastic pot (surface area: 600 cm^2) filled with sand, cotton (Go), pale smartweed (Po), slender amaranth (Am), common lambsquarters (Ch) and China jute (Ab) were sown and cultured in a green house for 2 weeks. […] The plants were then cultured in a green house, and the evaluation of the herbicidal effects and phytotoxicity was conducted on the 14th day after the treatment in accordance with the standards as identified in Table 47.

[1] = system: common lambsquarters (Ch); experiment: as above; type: in vivo; conditions: dose 1.6 g ai/10a, 14th day after treatment
Procedure: as §1, §2

China jute (Ab) = experiment: as above; type: in vivo; conditions: dose 1.6 g ai/10a, 14th day after treatment
Procedure: as §1, §2

pale smartweed (Po) = experiment: as above; type: in vivo; conditions: dose 1.6 g ai/10a, 14th day after treatment
Procedure: as §1, §2

cotton (Go) = experiment: Test Example 8: crop plant selectivity by upland field foliage treatment (cotton), phytotoxicity; type: in vivo; conditions: dose 1.6 g ai/10a, 14th day after treatment
Procedure: as §1, §2

Diaitaria ciliaris (Di) [2] = experiment: Test Example 4: crop plant selectivity by upland field soil treatment (cotton), herbicidal effects; type: in vivo; conditions: evaluated 21st day after application
In short: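 Sand-filled pots, seeds sown then soil-covered; soil application; greenhouse culture; visual scoring of weed control and cotton injury at day 21 post-application.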

Johnsongrass (So) = experiment: Test Example 6: crop plant selectivity by upland field soil treatment (soybean), herbicidal effects; type: in vivo; conditions: 21st day after application
Procedure: (§3) (Test on Crop Plant Selectivity by Upland Field Soil Treatment)
(§4) In a plastic pot (surface area: 600 cm^2) filled with sand, soybean (Gl), Diaitaria ciliaris (Di), green foxtail (Se), Johnsongrass (So), pale smartweed (Po), slender amaranth (Am), common lambsquarters (Ch) and China jute (Ab) were sown and covered with soil. […] The plants were then cultured in a green house, and the evaluation of the herbicidal effects and phytotoxicity was conducted on the 21st day after the application in accordance with the standards as identified in Table 47. Symbol—represents “not tested”.

Diaitaria ciliaris (Di) [3] = experiment: as above; type: in vivo; conditions: 21st day after application
Procedure: as §3, §4

Diaitaria ciliaris (Di) [4] = experiment: Test Example 5: crop plant selectivity by upland field soil treatment (wheat), herbicidal effects; type: in vivo; conditions: 21st day after application
Procedure: as §3
In a plastic pot (surface area: 600 cm^2) filled with sand, wheat (Tr), Diaitaria ciliaris (Di), green foxtail (Se), pale smartweed (Po), slender amaranth (Am), common lambsquarters (Ch) and China jute (Ab) were sown and covered with soil. […] The plants were then cultured in a green house, and the evaluation of the herbicidal effects and phytotoxicity was conducted on the 21st day after the application in accordance with the standards as identified in Table 47. Symbol—represents “not tested”.

soybean (Gl) = experiment: Test Example 10: crop plant selectivity by upland field foliage treatment (soybean), phytotoxicity; conditions: dose 1.6 g ai/10a, 14th day after treatment
Procedure: as §1
as §2, with “soybean (Gl),” for “cotton (Go),”

SMILES: C=CC(C)Oc1cc(-c2ccc(C(F)(F)F)n(C)c2=O)c(F)cc1Cl (stereo not drawn) [Compound 1-182]
Herbicidal effects Am (slender amaranth (Am)): 5
Herbicidal effects Ch [1]: 5
Herbicidal effects Ab (China jute (Ab)): 5
Herbicidal effects Po (pale smartweed (Po)): 5
Phytotoxicity Go (cotton (Go)): 2

SMILES: C#CCN1C(=O)COc2cc(F)c(-c3ccc(C(F)(F)F)n(C)c3=O)cc21 [Compound No. 2-1, 3-[7-fluoro-2,3-dihydro-4-(2-propynyl)-1,4-benzoxazin-3-on-6-yl]-1-methyl-6-trifluoromethyl-2(1H)-pyridone]
Herbicidal effects Di (Diaitaria ciliaris (Di) [2]; dose 1.6 g ai/10 a): 5
Herbicidal effects So (Johnsongrass (So); dose 1.6 g ai/10a): 5
Herbicidal effects So (Johnsongrass (So); dose 6.3 g ai/10a): 5
Herbicidal effects Di (Diaitaria ciliaris (Di) [3]; dose 1.6 g ai/10a): 5
Herbicidal effects Di (Diaitaria ciliaris (Di) [3]; dose 6.3 g ai/10a): 5
Herbicidal effects Di (Diaitaria ciliaris (Di) [4]; dose 1.6 g ai/10a): 5

SMILES: CCCc1cc2c(-c3ccc(C(F)(F)F)n(C)c3=O)c(F)cc(Cl)c2o1 [Compound 4-3]
Phytotoxicity Gl (soybean (Gl)): 2

SMILES: CCON=Cc1cc(-c2ccc(C(F)(F)F)n(C)c2=O)c(F)cc1Cl [Compound 1-187]
Herbicidal effects Am (slender amaranth (Am)): 5
Herbicidal effects Ch [1]: 5
Herbicidal effects Ab (China jute (Ab)): 5
Herbicidal effects Po (pale smartweed (Po)): 5
Phytotoxicity Go (cotton (Go)): 2
Phytotoxicity Gl (soybean (Gl)): 2

melting point: 159 to 161 °C
SMILES: Cn1cc(-c2cc(Oc3ccccc3)c(Cl)cc2F)c(=O)cc1C(F)(F)F [Compound No. 6-19, 5-(4-chloro-2-fluoro-5-phenoxyphenyl)-1-methyl-2-trifluoromethyl-4(1H)-pyridone]
Herbicidal effects Di (Diaitaria ciliaris (Di) [2]; dose 1.6 g ai/10 a): 5
Herbicidal effects Di (Diaitaria ciliaris (Di) [2]; dose 6.3 g ai/10 a): 5
Herbicidal effects So (Johnsongrass (So); dose 1.6 g ai/10a): 4
Herbicidal effects So (Johnsongrass (So); dose 6.3 g ai/10a): 5
Herbicidal effects Di (Diaitaria ciliaris (Di) [3]; dose 1.6 g ai/10a): 5
Herbicidal effects Di (Diaitaria ciliaris (Di) [3]; dose 6.3 g ai/10a): 5
Herbicidal effects Di (Diaitaria ciliaris (Di) [4]; dose 1.6 g ai/10a): 5
Herbicidal effects Di (Diaitaria ciliaris (Di) [4]; dose 6.3 g ai/10a): 5

melting point: 136 to 137 °C
SMILES: COCc1cc2c(-c3ccc(C(F)(F)F)n(C)c3=O)c(F)cc(Cl)c2o1 [Compound No. 4-4, 3-(7-chloro-5-fluoro-2-methoxymethylbenzofuran-4-yl)-1-methyl-6-trifluoromethyl-2-(1H)-pyridone]

SMILES: C=CCN1C(=O)COc2cc(F)c(-c3ccc(C(F)(F)F)n(C)c3=O)cc21 [Compound 2-7]
Herbicidal effects Di (Diaitaria ciliaris (Di) [2]; dose 1.6 g ai/10 a): 5
Herbicidal effects Di (Diaitaria ciliaris (Di) [2]; dose 6.3 g ai/10 a): 5
Herbicidal effects So (Johnsongrass (So); dose 1.6 g ai/10a): 5
Herbicidal effects So (Johnsongrass (So); dose 6.3 g ai/10a): 5
Herbicidal effects Di (Diaitaria ciliaris (Di) [3]; dose 1.6 g ai/10a): 5
Herbicidal effects Di (Diaitaria ciliaris (Di) [3]; dose 6.3 g ai/10a): 5
Herbicidal effects Di (Diaitaria ciliaris (Di) [4]; dose 1.6 g ai/10a): 5

melting point: 145 to 147 °C
SMILES: Cn1c(C(F)(F)F)ccc(-c2c(F)cc(Cl)c3oc(CO)cc23)c1=O [Compound No. 4-5, 3-(7-chloro-5-fluoro-2-hydroxymethylbenzofuran-4-yl)-1-methyl-6-trifluoromethyl-2-(1H)-pyridone]

SMILES: CCc1cc2c(Cl)cc(F)c(-c3ccc(C(F)(F)F)n(C)c3=O)c2o1 [Compound 5-2]
Phytotoxicity Gl (soybean (Gl)): 2

SMILES: Cn1c(C(F)(F)F)ccc(-c2cc(OCCCl)c(Cl)cc2F)c1=O [1-171]
Phytotoxicity Gl (soybean (Gl)): 2

melting point: 180 to 181 °C
SMILES: Cn1c(C(F)(F)F)ccc(-c2cc(C#N)c(Cl)cc2F)c1=O [Compound No. 1-119, 3-(4-chloro-5-cyano-2-fluorophenyl)-1-methyl-6-trifluoromethyl-2(1H)-pyridone]
Phytotoxicity Gl (soybean (Gl)): 2

SMILES: C#CC(C)Oc1cc(-c2cn(C)c(C(F)(F)F)cc2=O)c(F)cc1Cl (racemic) [Compound 6-10]
Herbicidal effects Di (Diaitaria ciliaris (Di) [2]; dose 1.6 g ai/10 a): 5
Herbicidal effects Di (Diaitaria ciliaris (Di) [2]; dose 6.3 g ai/10 a): 5
Herbicidal effects So (Johnsongrass (So); dose 1.6 g ai/10a): 5
Herbicidal effects Di (Diaitaria ciliaris (Di) [3]; dose 1.6 g ai/10a): 5
Herbicidal effects Di (Diaitaria ciliaris (Di) [4]; dose 1.6 g ai/10a): 5

SMILES: CCCC(=O)c1cc(-c2ccc(C(F)(F)F)n(C)c2=O)c(F)cc1Cl [Compound No. 1-194, 3-[4-chloro-2-fluoro-5-(1-oxobutyl)phenyl]-1-methyl-6-trifluoromethyl-2(1H)-pyridone]
Herbicidal effects Am (slender amaranth (Am)): 5
Herbicidal effects Ch [1]: 5
Herbicidal effects Ab (China jute (Ab)): 5
Herbicidal effects Po (pale smartweed (Po)): 5
Phytotoxicity Go (cotton (Go)): 2

melting point: 150 to 151 °C
SMILES: C#CCn1c(=O)sc2cc(F)c(-c3ccc(C(F)(F)F)n(C)c3=O)cc21 [Compound No. 3-1, 3-[6-fluoro-3-(2-propynyl)-benzothiazolin-2-on-5-yl]-1-methyl-6-trifluoromethyl-2(1H)-pyridone]

melting point: 178 to 179 °C
SMILES: Cn1c(C(F)(F)F)ccc(-c2c(F)cc(Cl)c3occc23)c1=O [Compound No. 4-28, 3-(7-chloro-5-fluorobenzofuran-4-yl)-1-methyl-6-trifluoromethyl-2-(1H)-pyridone]

SMILES: CSCOc1cc(-c2ccc(C(F)(F)F)n(C)c2=O)c(F)cc1Cl [Compound 1-208]
Phytotoxicity Gl (soybean (Gl)): 2

SMILES: COc1cc(-c2ccc(C(F)(F)F)n(C)c2=O)c(F)cc1Cl [1-15]
Herbicidal effects Di (Diaitaria ciliaris (Di) [2]; dose 6.3 g ai/10 a): 5
